For orientation: pIC50 means the negative decadic logarithm of the IC50, by convention in mol/L.

We go through 3 compounds from patent publication US10759826B2, “15β-substituted estrone derivatives as selective inhibitors of 17β-hydroxysteroid-dehydrogenases, method of preparation and use thereof” (USTAV ORGANICKE CHEMIE A BIOCHEMIE AV CR, V.V.I., priority 2016, dated 2020).

The target in one experiment is luciferase (Photinus pyralis, UniProt P08659). Description: Luciferase activity in U2OS cell line constitutively expressing luciferase gene. The format is cell-based. Particulars: read-out: Luciferase activity IC50. On the procedure:
In order to distinguish between the specific, steroid hormone response elements-driven regulation of the luciferase expression and the possible effects of test compounds on the luciferase activity, compounds were tested in parallel experiment on a U2OS cell line constitutively expressing luciferase gene.
Luciferase activity was determined by a commercial kit Britelite plus a luciferase reporter gene assay reagent (Perkin Elmer, USA), 24 h after addition of compounds to cells. The intensity of luminescence was measured on an Envision multimode spectrophotometer (PerkinElmer).

In another experiment the test system is U2OS cells. Description: Cell viability (ATP) of unmodified U2OS cells, parallel to reporter assay. The experiment is classed as cell-based, human. The protocol: To separate the antagonist activity of test compounds from the cytotoxic effect on U2OS cells (cell line derived from osteosarcoma), an experiment for determination of cell viability was performed in parallel with the reporter assay. Original, genetically unmodified U2OS cells were grown under the same conditions as the reporter cells. These cells were further treated and incubated with the compounds in a completely identical manner and for the same time as cells in the reporter assay. At the end of the experiment, the amount of ATP was determined using BriteLite luciferase homogeneous assay as a measure of cell viability. The data were then processed together with data from the reporter assays.

For another experiment, the system named is T-47D ER+ cells. Conditions: Laplante et al. 2008; cited from earlier work.

pIC50: −log10 of the molar value. Like-named read-outs stand apart in the source and are kept apart here.

In the case of “4-hydroxytamoxifen [Compound 4-OHT, reference compound]”, the pIC50 is 4.99 on luciferase and 4.92 with U2OS cells.

On to `C[C@]12CC[C@@H]3c4ccc(O)cc4CC[C@H]3[C@@H]1C[C@H](Cc1cccc(C(N)=O)c1)[C@@H]2O` [Compound E2B, 16β-m-carbamoylbenzyl-E2], for which, in the experiment on T-47D ER+ cells, the “reduction of proliferation induced by the physiological level of E1” value is on record as 62%. In the case of `CC#C[C@]1(O)CC[C@H]2[C@@H]3CCC4=CC(=O)CCC4=C3[C@@H](c3ccc(N(C)C)cc3)C[C@@]21C` [RU486, reference compound], the figures for the pIC50 at luciferase and in the experiment on U2OS cells (Homo sapiens) were 4.75 and 4.32, respectively.
